Experimental data published in ChEMBL document CHEMBL1149282, “A systematic approach to the optimization of substrate-based inhibitors of the hepatitis C virus NS3 protease: discovery of potent and specific tripeptide inhibitors” (J Med Chem, 2004).
Square brackets hold non-standard residues; d marks the D form. Peptide text beside a SMILES is read from it. * marks the point of attachment. Hyp(2-Ph-quinolin-4-yl) = O=C(O)[C@@H]1C[C@@H](Oc2cc(-c3ccccc3)nc3ccccc23)CN1; Hyp(quinolin-4-yl) = O=C(O)[C@@H]1C[C@@H](Oc2ccnc3ccccc23)CN1; Ac3c(1R,2S-2-vinyl) = C=C[C@@H]1C[C@]1(N)C(=O)O; Hyp = O=C(O)[C@@H]1C[C@@H](O)CN1; Chg = N[C@H](C(=O)O)C1CCCCC1; X1 = c1ccc2cc(C*)ccc2c1

Legend:
[1] = Inhibition of HCV NS3 protease; design: species or system Hepacivirus hominis
Hepatitis C virus = experiment: Antiviral activity in Huh7 cells containing sub-genomic HCV subtype 1b replicon by RT-PCR; format: functional, organism-based, Hepacivirus hominis; settings: genotype 1b, Huh-7
Neutrophil elastase = target: T1, Neutrophil elastase (Homo sapiens, UniProt P08246); experiment: Inhibition of human leucocyte elastase
T1 sequence (P08246 whole entry): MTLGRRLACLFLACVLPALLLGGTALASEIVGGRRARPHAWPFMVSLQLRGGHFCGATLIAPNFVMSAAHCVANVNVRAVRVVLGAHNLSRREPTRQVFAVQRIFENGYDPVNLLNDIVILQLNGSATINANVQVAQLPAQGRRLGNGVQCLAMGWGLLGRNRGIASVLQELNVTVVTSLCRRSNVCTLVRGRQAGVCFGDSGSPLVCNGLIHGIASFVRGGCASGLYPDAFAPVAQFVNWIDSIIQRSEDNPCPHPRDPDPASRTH

Cathepsin B = Cathepsin B (Homo sapiens, UniProt P07858); experiment: Inhibition of human cathepsin B

| SMILES | IC50 [1] [nM] | other results |
| --- | --- | --- |
| C=C[C@@H]1C[C@]1(NC(=O)[C@@H]1C[C@@H](Oc2cc(-c3ccccc3)nc3cc(SC)ccc23)CN1C(=O)[C@@H](NC(=O)OC(C)(C)C)C(C)(C)C)C(=O)O | 139 |  |
| C=C[C@@H]1C[C@]1(NC(=O)[C@@H]1C[C@@H](Oc2cc(-c3ccccc3)nc3cc(Br)ccc23)CN1C(=O)[C@@H](NC(=O)OC(C)(C)C)C(C)(C)C)C(=O)O | 350 |  |
| C=C[C@@H]1C[C@]1(NC(=O)[C@@H]1C[C@@H](Oc2cc(-c3ccccc3)nc3cc(OC)ccc23)CN1C(=O)[C@@H](NC(=O)CC1CCCCC1)C(C)(C)C)C(=O)O | 37 |  |
| C=C[C@@H]1C[C@]1(NC(=O)[C@@H]1C[C@@H](Oc2cc(-c3ccccc3)nc3cccc(OC)c23)CN1C(=O)[C@@H](NC(=O)[C@@H](NC(C)=O)C1CCCCC1)C(C)C)C(=O)O | 557 |  |
| C=C[C@@H]1C[C@]1(NC(=O)[C@@H]1C[C@@H](Oc2cc(-c3ccccc3)nc3cc(OC)ccc23)CN1C(=O)[C@@H](NC(=O)OC1CCCCC1)C(C)(C)C)C(=O)O | 30 | EC50 (Hepatitis C virus): 460 nM |
| C=C[C@@H]1C[C@]1(NC(=O)[C@@H]1C[C@@H](Oc2cc(-c3ccccc3)nc3cc(OC)ccc23)CN1C(=O)[C@@H](NC(=O)[C@@H](N)C1CCCCC1)C(C)(C)C)C(=O)O | 18 |  |
| C=C[C@@H]1C[C@]1(NC(=O)[C@@H]1C[C@@H](OCc2ccc3ccccc3c2)CN1C(=O)[C@@H](NC(=O)[C@@H](NC(C)=O)C1CCCCC1)C(C)C)C(=O)O (Ac-[Chg]V[Hyp](X1)[Ac3c(1R,2S-2-vinyl)]-OH) | 600 |  |
| C=C[C@@H]1C[C@]1(NC(=O)[C@@H]1C[C@@H](Oc2cc(-c3ccccc3)nc3cc(C(F)(F)F)ccc23)CN1C(=O)[C@@H](NC(=O)OC(C)(C)C)C(C)(C)C)C(=O)O | 828 |  |
| C=C[C@@H]1C[C@]1(NC(=O)[C@@H]1C[C@@H](Oc2cc(-c3ccccc3)nc3cc(OC)ccc23)CN1C(=O)[C@@H](OC(=O)NC1CCCC1)C(C)(C)C)C(=O)O | 148 |  |
| C=C[C@@H]1C[C@]1(NC(=O)[C@@H]1C[C@@H](Oc2cc(-c3ccccc3)nc3cc(NC(C)=O)ccc23)CN1C(=O)[C@@H](NC(=O)OC(C)(C)C)C(C)(C)C)C(=O)O | 29 |  |
| C=C[C@@H]1C[C@]1(NC(=O)[C@@H]1C[C@@H](Oc2cc(-c3ccccc3)nc3ccccc23)CN1C(=O)[C@@H](NC(=O)[C@@H](NC(C)=O)C1CCCCC1)C(C)C)C(=O)O (Ac-[Chg]V[Hyp(2-Ph-quinolin-4-yl)][Ac3c(1R,2S-2-vinyl)]-OH) | 13 | IC50 (Neutrophil elastase): > 30000 nM; IC50 (Cathepsin B): > 30000 nM |
| C=C[C@@H]1C[C@]1(NC(=O)[C@@H]1C[C@@H](Oc2cc(-c3ccccc3)nc3cc(OC)ccc23)CN1C(=O)[C@@H](NC(=O)NC1CCCCC1)C(C)(C)C)C(=O)O | 9 | EC50 (Hepatitis C virus): 2900 nM |
| C=C[C@@H]1C[C@]1(NC(=O)[C@@H]1C[C@@H](Oc2cc(-c3ccccc3)nc3cc(OC(F)(F)F)ccc23)CN1C(=O)[C@@H](NC(=O)OC(C)(C)C)C(C)(C)C)C(=O)O | 790 |  |
| C=C[C@@H]1C[C@]1(NC(=O)[C@@H]1C[C@@H](Oc2ccnc3cc(OC)ccc23)CN1C(=O)[C@@H](NC(=O)[C@@H](NC(C)=O)C1CCCCC1)C(C)C)C(=O)O | 10 |  |
| C=C[C@@H]1C[C@]1(NC(=O)[C@@H]1C[C@@H](Oc2cc(-c3ccccc3)nc3ccccc23)CN1C(=O)[C@@H](NC(=O)OC(C)(C)C)C(C)(C)C)C(=O)O | 150 |  |
| C=C[C@@H]1C[C@]1(NC(=O)[C@@H]1C[C@@H](Oc2cc(-c3ccccc3)nc3cc(OC)ccc23)CN1C(=O)[C@@H](NC(=O)[C@@H](NC(C)=O)C1CCCCC1)C(C)(C)C)C(=O)O | 1 |  |
| C=C[C@@H]1C[C@]1(NC(=O)[C@@H]1C[C@@H](Oc2cc(-c3ccccc3)nc3cc(OC(C)C)ccc23)CN1C(=O)[C@@H](NC(=O)OC(C)(C)C)C(C)(C)C)C(=O)O | 228 |  |

Second part, led by results:

| IC50 [1] [nM] | SMILES | other results |
| --- | --- | --- |
| 282 | C=C[C@@H]1C[C@]1(NC(=O)[C@@H]1C[C@@H](Oc2cc(-c3ccccc3)nc3cc(F)ccc23)CN1C(=O)[C@@H](NC(=O)OC(C)(C)C)C(C)(C)C)C(=O)O |  |
| 37 | C=C[C@@H]1C[C@]1(NC(=O)[C@@H]1C[C@@H](Oc2cc(-c3ccccc3)nc3cc(OC)ccc23)CN1C(=O)[C@@H](NC(=O)[C@@H](C)C1CCCCC1)C(C)(C)C)C(=O)O |  |
| 14 | C=C[C@@H]1C[C@]1(NC(=O)[C@@H]1C[C@@H](Oc2cc(-c3ccccc3)nc3cc(OC)ccc23)CN1C(=O)[C@@H](NC(=O)OC1CCCC1)C(C)(C)C)C(=O)O |  |
| 41 | C=C[C@@H]1C[C@]1(NC(=O)[C@@H]1C[C@@H](Oc2cc(-c3ccccc3)nc3ccc(OC)cc23)CN1C(=O)[C@@H](NC(=O)[C@@H](NC(C)=O)C1CCCCC1)C(C)C)C(=O)O |  |
| > 1000 | C=C[C@@H]1C[C@]1(NC(=O)[C@@H]1C[C@@H](Oc2cc(-c3ccccc3)nc3cc(C(=O)O)ccc23)CN1C(=O)[C@@H](NC(=O)OC(C)(C)C)C(C)(C)C)C(=O)O |  |
| 2 | C=C[C@@H]1C[C@]1(NC(=O)[C@@H]1C[C@@H](Oc2cc(-c3ccccc3)nc3cc(OC)ccc23)CN1C(=O)[C@@H](NC(=O)[C@@H](NC(C)=O)C1CCCCC1)C(C)C)C(=O)O |  |
| 205 | C=C[C@@H]1C[C@]1(NC(=O)[C@@H]1C[C@@H](Oc2cc(-c3ccccc3)nc3cc(OC)ccc23)CN1C(=O)[C@@H](NC(=O)N(C)C(C)(C)C)C(C)(C)C)C(=O)O |  |
| 170 | C=C[C@@H]1C[C@]1(NC(=O)[C@@H]1C[C@@H](Oc2ccnc3ccccc23)CN1C(=O)[C@@H](NC(=O)[C@@H](NC(C)=O)C1CCCCC1)C(C)C)C(=O)O (Ac-[Chg]V[Hyp(quinolin-4-yl)][Ac3c(1R,2S-2-vinyl)]-OH) |  |
| 5 | C=C[C@@H]1C[C@]1(NC(=O)[C@@H]1C[C@@H](Oc2cc(-c3ccccc3)nc3cc(OC)ccc23)CN1C(=O)[C@@H](NC(=O)NC1CCCC1)C(C)(C)C)C(=O)O | EC50 (Hepatitis C virus): 910 nM |
| 5 | C=C[C@@H]1C[C@]1(NC(=O)[C@@H]1C[C@@H](Oc2cc(-c3ccccc3)nc3c(OC)cccc23)CN1C(=O)[C@@H](NC(=O)[C@@H](NC(C)=O)C1CCCCC1)C(C)C)C(=O)O |  |
| 8 | C=C[C@@H]1C[C@]1(NC(=O)[C@@H]1C[C@@H](Oc2cc(-c3ccccc3)nc3cc(OC)ccc23)CN1C(=O)[C@@H](NC(=O)NC(C)(C)C)C(C)(C)C)C(=O)O | EC50 (Hepatitis C virus): 1220 nM |
| 24 | C=C[C@@H]1C[C@]1(NC(=O)[C@@H]1C[C@@H](Oc2cc(-c3ccccc3)nc3cc(OC)ccc23)CN1C(=O)[C@@H](NC(=O)OC1CCC1)C(C)(C)C)C(=O)O | EC50 (Hepatitis C virus): 960 nM |
| 13 | C=C[C@@H]1C[C@]1(NC(=O)[C@@H]1C[C@@H](Oc2cc(-c3ccccc3)nc3c(OC)c(OC)ccc23)CN1C(=O)[C@@H](NC(=O)[C@@H](NC(C)=O)C1CCCCC1)C(C)C)C(=O)O |  |
| 29 | C=C[C@@H]1C[C@]1(NC(=O)[C@@H]1C[C@@H](Oc2cc(-c3ccccc3)nc3cc(OC)ccc23)CN1C(=O)[C@@H](NC(=O)OC(C)(C)C)C(C)(C)C)C(=O)O | IC50 (Neutrophil elastase): > 75000 nM; EC50 (Hepatitis C virus): 660 nM |
